Measurements: paper PMC9304723 (Heliyon, 2022)

What was measured:
[1] = target: P-glycoprotein (Pgp) (Homo sapiens, UniProt P08183); assay: Caco-2 transport of CA with Pgp inhibitor GF120918; format: in vitro ADME; details: 2 μM GF120918
[2] = target: T1, OATP2B1 (Homo sapiens, UniProt O94956); assay: Caco-2 transport of CA with OATP2B1 inhibitor baicalin; format: in vitro ADME; details: 6 μM baicalin
T1 sequence (O94956 1-709): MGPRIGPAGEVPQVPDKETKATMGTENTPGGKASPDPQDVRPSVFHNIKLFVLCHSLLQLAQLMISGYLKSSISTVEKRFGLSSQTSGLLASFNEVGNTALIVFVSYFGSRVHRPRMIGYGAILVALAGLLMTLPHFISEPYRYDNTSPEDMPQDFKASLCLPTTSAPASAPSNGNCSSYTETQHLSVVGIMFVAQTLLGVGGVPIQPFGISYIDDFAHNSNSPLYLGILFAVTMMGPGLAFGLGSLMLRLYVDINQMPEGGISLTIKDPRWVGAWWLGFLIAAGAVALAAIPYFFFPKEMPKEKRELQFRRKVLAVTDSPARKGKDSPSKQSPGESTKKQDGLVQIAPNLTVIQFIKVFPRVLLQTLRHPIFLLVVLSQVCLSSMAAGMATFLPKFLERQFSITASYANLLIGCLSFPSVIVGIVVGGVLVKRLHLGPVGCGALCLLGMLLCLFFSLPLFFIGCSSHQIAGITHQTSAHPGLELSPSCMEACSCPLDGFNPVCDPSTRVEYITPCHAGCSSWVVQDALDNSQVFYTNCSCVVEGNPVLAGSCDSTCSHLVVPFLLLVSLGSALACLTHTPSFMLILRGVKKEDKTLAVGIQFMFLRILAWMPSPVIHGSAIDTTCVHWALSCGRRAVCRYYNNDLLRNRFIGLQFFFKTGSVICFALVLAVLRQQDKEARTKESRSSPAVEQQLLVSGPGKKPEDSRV

[3] = target: T1, OATP2B1; details: read-out: IC50, reduction of influx of substrates of OATP2B1; cited from earlier work

Chain of P-glycoprotein (Pgp) (P08183 whole entry): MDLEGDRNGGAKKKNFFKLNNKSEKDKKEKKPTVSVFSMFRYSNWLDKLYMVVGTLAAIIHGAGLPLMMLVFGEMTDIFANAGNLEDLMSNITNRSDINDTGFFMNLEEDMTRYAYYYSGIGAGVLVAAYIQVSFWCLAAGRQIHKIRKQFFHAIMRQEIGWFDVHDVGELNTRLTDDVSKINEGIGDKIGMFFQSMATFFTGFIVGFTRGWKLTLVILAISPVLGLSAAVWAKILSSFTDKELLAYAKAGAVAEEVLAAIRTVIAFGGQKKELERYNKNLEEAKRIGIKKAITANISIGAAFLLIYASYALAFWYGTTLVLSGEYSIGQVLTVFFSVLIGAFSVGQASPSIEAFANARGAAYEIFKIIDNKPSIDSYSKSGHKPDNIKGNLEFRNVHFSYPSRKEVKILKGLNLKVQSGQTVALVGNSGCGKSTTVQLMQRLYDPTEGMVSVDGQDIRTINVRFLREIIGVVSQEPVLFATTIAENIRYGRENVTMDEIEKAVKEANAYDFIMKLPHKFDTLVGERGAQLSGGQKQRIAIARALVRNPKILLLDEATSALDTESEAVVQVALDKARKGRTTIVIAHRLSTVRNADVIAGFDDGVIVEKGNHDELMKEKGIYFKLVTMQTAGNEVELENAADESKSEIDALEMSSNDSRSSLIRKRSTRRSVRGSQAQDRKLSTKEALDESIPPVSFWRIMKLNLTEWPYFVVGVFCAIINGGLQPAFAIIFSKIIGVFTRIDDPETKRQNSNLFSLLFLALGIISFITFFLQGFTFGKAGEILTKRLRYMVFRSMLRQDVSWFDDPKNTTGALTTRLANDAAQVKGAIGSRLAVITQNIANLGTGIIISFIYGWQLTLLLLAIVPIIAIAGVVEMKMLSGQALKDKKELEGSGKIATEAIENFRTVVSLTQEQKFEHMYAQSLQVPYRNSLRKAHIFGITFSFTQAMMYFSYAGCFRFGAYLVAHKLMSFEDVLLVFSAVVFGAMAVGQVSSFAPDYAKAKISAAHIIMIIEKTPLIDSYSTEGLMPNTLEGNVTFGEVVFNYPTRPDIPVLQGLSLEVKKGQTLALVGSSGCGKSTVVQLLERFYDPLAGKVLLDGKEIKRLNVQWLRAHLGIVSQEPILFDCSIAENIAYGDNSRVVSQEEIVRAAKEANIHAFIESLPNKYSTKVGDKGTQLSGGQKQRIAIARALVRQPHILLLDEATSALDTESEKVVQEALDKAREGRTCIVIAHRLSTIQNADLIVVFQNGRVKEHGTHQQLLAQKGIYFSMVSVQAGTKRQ

Molecule | Decrease of Papp B–A after GF120918 treatment [1] | Decrease of Papp B–A after baicalin treatment [2] | IC50 [3]
Chicoric acid [CA] | 62% | 63% | 
O=C(O)[C@H]1O[C@@H](Oc2cc3oc(-c4ccccc4)cc(=O)c3c(O)c2O)[C@H](O)[C@@H](O)[C@@H]1O [baicalin] |  |  | 5.6 ± 3.2 µM
